# Experimental data: US20180099931A1 (AbbVie S.à.r.l., priority 2016, published 2018)
# Like-named read-outs stand apart in the source and are kept apart here.
# Target: T1, F508delCFTR (Homo sapiens, UniProt P13569, DEL508-508)
# T1 construct: expressed in transfected cells; host or cells: CFBE41o- human lung-derived epithelial cells (CFBE4lo-F508delCFTR-HRP), doxycycline-inducible
# Test: Cell Surface Expression-Horse Radish Peroxidase (CSE-HRP) Assay;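 on Maximum % activity (with co-corrector): co-corrector and positive control are both the same reference corrector at 2 µM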;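 on Maximum % activity (without co-corrector): percent of the 2 µM on-plate positive control corrector response above DMSO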
# Assay type: cell-based
# Conditions: for Maximum % activity (with co-corrector) / Emax: maximum at any tested concentration, normalized to on-plate positive control; for Emax: read-out: Maximum % activity (without co-corrector)
# [1] = test compound without co-corrector, read-out: EC50 (without co-corrector)
# [2] = with co-corrector (2 μM of 3-[(2R,4R)-4-({[1-(2,2-difluoro-1,3-benzodioxol-5-yl)cyclopropyl]carbonyl}amino)-7-methoxy-3,4-dihydro-2H-chromen-2-yl]benzoic acid), read-out: EC50 (with co-corrector)
# [3] = CSE-HRP, test compound without co-corrector, read-out: EC50 (without co-corrector)
# [4] = CSE-HRP, with co-corrector (2 μM of 3-[(2R,4R)-4-({[1-(2,2-difluoro-1,3-benzodioxol-5-yl)cyclopropyl]carbonyl}amino)-7-methoxy-3,4-dihydro-2H-chromen-2-yl]benzoic acid), read-out: EC50 (with co-corrector)
# [5] = CSE-HRP, with co-corrector (2 μM)
# [6] = test compound without co-corrector
# [7] = with co-corrector (2 μM of 3-[(2R,4R)-4-({[1-(2,2-difluoro-1,3-benzodioxol-5-yl)cyclopropyl]carbonyl}amino)-7-methoxy-3,4-dihydro-2H-chromen-2-yl]benzoic acid)
# T1 sequence (P13569 with tags, fused parts or gaps DEL508-508): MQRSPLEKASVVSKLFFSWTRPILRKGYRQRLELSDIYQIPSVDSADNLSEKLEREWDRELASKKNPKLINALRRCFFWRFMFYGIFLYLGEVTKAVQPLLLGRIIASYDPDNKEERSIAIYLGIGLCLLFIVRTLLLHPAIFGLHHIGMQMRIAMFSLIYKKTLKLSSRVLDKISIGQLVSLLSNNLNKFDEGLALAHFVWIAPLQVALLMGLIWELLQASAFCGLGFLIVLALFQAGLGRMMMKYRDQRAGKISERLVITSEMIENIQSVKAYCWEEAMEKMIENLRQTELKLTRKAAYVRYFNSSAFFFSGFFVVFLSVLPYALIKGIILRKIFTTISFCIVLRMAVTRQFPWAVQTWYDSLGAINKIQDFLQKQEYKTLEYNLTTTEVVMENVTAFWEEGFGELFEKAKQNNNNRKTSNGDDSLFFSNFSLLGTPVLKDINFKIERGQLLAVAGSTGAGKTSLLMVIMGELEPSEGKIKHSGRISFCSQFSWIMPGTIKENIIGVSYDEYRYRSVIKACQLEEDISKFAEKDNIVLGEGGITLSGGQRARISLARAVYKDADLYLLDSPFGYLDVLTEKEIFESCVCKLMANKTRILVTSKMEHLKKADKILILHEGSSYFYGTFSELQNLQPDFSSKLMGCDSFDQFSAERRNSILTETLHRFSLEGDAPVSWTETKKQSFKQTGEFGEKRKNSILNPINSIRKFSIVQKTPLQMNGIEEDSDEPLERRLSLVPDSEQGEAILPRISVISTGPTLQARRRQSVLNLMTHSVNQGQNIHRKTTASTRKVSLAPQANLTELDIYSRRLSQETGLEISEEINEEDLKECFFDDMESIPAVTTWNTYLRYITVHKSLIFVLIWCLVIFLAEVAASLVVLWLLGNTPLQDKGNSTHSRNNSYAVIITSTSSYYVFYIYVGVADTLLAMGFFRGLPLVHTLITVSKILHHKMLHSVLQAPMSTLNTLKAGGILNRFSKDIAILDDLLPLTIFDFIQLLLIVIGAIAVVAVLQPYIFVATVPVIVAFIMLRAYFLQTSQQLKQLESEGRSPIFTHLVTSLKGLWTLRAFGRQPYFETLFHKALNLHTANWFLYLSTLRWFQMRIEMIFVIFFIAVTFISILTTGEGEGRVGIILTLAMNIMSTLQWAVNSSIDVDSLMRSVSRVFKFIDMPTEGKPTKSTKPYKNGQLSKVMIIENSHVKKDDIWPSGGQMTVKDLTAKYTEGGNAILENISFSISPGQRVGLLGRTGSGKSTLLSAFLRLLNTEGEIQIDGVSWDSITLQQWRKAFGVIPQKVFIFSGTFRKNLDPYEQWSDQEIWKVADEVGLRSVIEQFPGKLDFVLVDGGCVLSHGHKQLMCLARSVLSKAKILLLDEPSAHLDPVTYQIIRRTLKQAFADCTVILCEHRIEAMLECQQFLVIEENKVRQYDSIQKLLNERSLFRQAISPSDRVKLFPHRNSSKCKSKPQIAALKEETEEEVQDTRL
EC50 [1] [nM],EC50 [2] [nM],Maximum % activity (with co-corrector) (with co-corrector (2 μM)),Emax (without co-corrector) [%],EC50 [3] [nM],EC50 [4] [nM],Maximum % activity (with co-corrector) [5],"Emax (CSE-HRP, without co-corrector) [%]",Emax [6] [%],Maximum % activity (with co-corrector) [7],SMILES
< 1000,< 1000,+++ (≥350),100 to 200,–,–,–,–,–,–,"COc1ncc(-c2ccccc2)cc1CN[C@H]1[C@H](C(C)(C)C)[C@@H](C(=O)O)N(C(=O)C2CCCCC2)[C@H]1c1ccccc1 [Example 25, (2S,3S,4S,5S)-3-tert-butyl-1-(cyclohexanecarbonyl)-4-{[(2-methoxy-5-phenylpyridin-3-yl)methyl]amino}-5-phenylpyrrolidine-2-carboxylic acid]"
–,–,–,–,< 1000,< 1000,+++ (≥350),100 to 200,–,–,COc1ccc(C(C)(C)C)cc1CN[C@H]1[C@H](C(C)(C)C)[C@@H](C(=O)O)N(C(=O)Cc2ccc(C)cc2)[C@H]1c1ccccc1 [II-204]
1000 to 10000,1000 to 10000,+++ (≥350),100 to 200,–,–,–,–,–,–,COc1ccc(C(F)(F)F)cc1CN[C@H]1[C@H](C(C)(C)C)[C@@H](C(=O)O)N(C(=O)C2OC[C@@H]3CCC[C@H]23)[C@H]1c1ccccc1 (relative stereo) [Example I-108]
1000 to 10000,< 1000,–,–,–,–,–,–,100 to 200,+++ (≥350),COc1cc(C(F)(F)F)ccc1CN[C@@H]1[C@@H](C(C)(C)C)[C@H](C(=O)O)N(C(=O)C2CCCCC2)[C@@H]1c1ccccc1OC (stereo in doubt) [III-40]
1000 to 10000,< 1000,+++ (≥350),> 200,–,–,–,–,–,–,"COc1ccc(C2(C)CCC2)cc1CN[C@H]1[C@H](C(C)(C)C)[C@@H](C(=O)O)N(C(=O)[C@@H]2CCCO2)[C@H]1c1ccccc1C1CC1 [Example 112, (2S,3S,4S,5S)-3-tert-butyl-5-(2-cyclopropylphenyl)-4-({[2-methoxy-5-(1-methylcyclobutyl)phenyl]methyl}amino)-1-[(2S)-oxolane-2-carbonyl]pyrrolidine-2-carboxylic acid]"
–,–,–,–,1000 to 10000,1000 to 10000,+++ (≥350),> 200,–,–,COc1ncc(C(F)(F)F)cc1CN[C@H]1[C@H](C(C)(C)C)[C@@H](C(=O)O)N(C(=O)[C@@H]2CCCO2)[C@H]1c1ccccc1C [Example I-262]
–,–,–,–,1000 to 10000,1000 to 10000,+++ (≥350),100 to 200,–,–,COc1nc(C(F)(F)F)ccc1CN[C@@H]1[C@@H](C(C)(C)C)[C@H](C(=O)O)N(C(=O)C2CCCCC2)[C@@H]1c1ccccc1 (racemic) [II-77]
1000 to 10000,1000 to 10000,+++ (≥350),–,–,–,–,–,> 200,–,COc1ccc(SC(F)(F)F)cc1CN[C@H]1[C@H](C(C)(C)C)[C@@H](C(=O)O)N(C(=O)OC(C)C)[C@H]1c1cccnc1N(C)C [III-225]
< 1000,< 1000,–,–,–,–,–,–,> 200,+++ (≥350),COc1ccc(C(C)(C)C)cc1CN[C@H]1[C@H](C(C)(C)C)[C@@H](C(=O)O)N(C(=O)OCC(C)(C)C)[C@H]1c1ccccc1 [II-392]
1000 to 10000,1000 to 10000,++ (≥150 and <350),–,–,–,–,–,< 100,–,COc1ccc(C(F)(F)F)c(CN[C@@H]2[C@@H](C(C)(C)C)[C@H](C(=O)O)N(C(=O)C3CCCCC3)[C@@H]2c2ccccc2)c1 (racemic) [III-106]
> 10000,> 10000,–,–,–,–,–,–,< 100,+ (<150),COCCn1ccnc1CN[C@@H]1[C@@H](C(C)(C)C)[C@H](C(=O)O)N(C(=O)C2CCCCC2)[C@@H]1c1ccccc1 (racemic) [III-24]
> 10000,1000 to 10000,++ (≥150 and <350),–,–,–,–,–,< 100,–,CC(C)(C)[C@H]1[C@H](NCc2ccc(Cl)c(Cl)c2)[C@H](c2ccccc2)N(C(=O)C2CCCCC2)[C@@H]1C(=O)O [III-130]
–,–,–,–,1000 to 10000,1000 to 10000,+++ (≥350),> 200,–,–,COc1cc(OC(F)(F)F)ccc1CN[C@@H]1[C@@H](C(C)(C)C)[C@H](C(=O)O)N(C(=O)OC(C)C)[C@@H]1c1ccccc1 (racemic) [II-41]
1000 to 10000,1000 to 10000,+++ (≥350),100 to 200,–,–,–,–,–,–,"COc1ccc(C(C)(C)C)cc1CN[C@H]1[C@H](C(C)(C)C)[C@@H](C(=O)O)N(C(=O)C2CCC2)[C@H]1c1cccnc1N1CCC1 [Example 102, (2S,3S,4S,5S)-5-[2-(azetidin-1-yl)pyridin-3-yl]-3-tert-butyl-4-{[(5-tert-butyl-2-methoxyphenyl)methyl]amino}-1-(cyclobutanecarbonyl)pyrrolidine-2-carboxylic acid]"
1000 to 10000,1000 to 10000,+++ (≥350),< 100,–,–,–,–,–,–,COc1ccc(C(F)(F)F)cc1CN[C@H]1[C@H](C(C)(C)C)[C@@H](C(=O)O)N(C(=O)[C@@H]2CCCC(F)(F)C2)[C@H]1c1ccccc1 [Example I-124]
1000 to 10000,1000 to 10000,++ (≥150 and <350),–,–,–,–,–,< 100,–,COc1cc(C(F)(F)F)ccc1CN[C@@H]1[C@@H](C(C)(C)C)[C@H](C(=O)O)N(C(=O)C2COCCO2)[C@@H]1c1ccccc1 (mixture of isomers) [III-113]
1000 to 10000,1000 to 10000,++ (≥150 and <350),–,–,–,–,–,< 100,–,COc1cccc([C@H]2[C@@H](Nc3cc(C(F)(F)F)cc(C)n3)[C@H](C(C)(C)C)[C@@H](C(=O)O)N2C(=O)C2CCCCC2)n1 (racemic) [III-97]
–,–,–,–,1000 to 10000,1000 to 10000,+++ (≥350),100 to 200,–,–,COc1ccc(C(C)(C)C)cc1CN[C@H]1[C@H](C(C)(C)C)[C@@H](C(=O)O)N(C(=O)C2COC(C(C)C)OC2)[C@H]1c1ccccc1 (stereo partly shown) [II-216]
1000 to 10000,1000 to 10000,–,–,–,–,–,–,100 to 200,+++ (≥350),COc1ccc(C(C)(C)C)cc1CN[C@H]1[C@H](C(C)(C)C)[C@@H](C(=O)O)N(C(=O)C2CC(F)(F)C2)[C@H]1c1ccccc1 [II-336]
–,–,–,–,1000 to 10000,1000 to 10000,+++ (≥350),100 to 200,–,–,CC[C@H](C(=O)N1[C@H](C(=O)O)[C@@H](C(C)(C)C)[C@H](NCc2cc(C(C)(C)C)ccc2OC)[C@@H]1c1cccnc1OC)c1ccccc1 [Example I-253]
1000 to 10000,1000 to 10000,+++ (≥350),> 200,–,–,–,–,–,–,COc1ccc(C(F)(F)F)cc1CN[C@H]1[C@H](C(C)(C)C)[C@@H](C(=O)O)N(C(=O)C2CCC(C)(C)O2)[C@H]1c1ccccc1 (stereo partly shown) [Example I-164]
–,–,–,–,1000 to 10000,1000 to 10000,+++ (≥350),< 100,–,–,Cc1cc(C)cc(CN[C@H]2[C@H](C(C)(C)C)[C@@H](C(=O)O)N(C(=O)C3CCCCC3)[C@H]2c2ccccc2)c1 [II-132]
–,–,–,–,1000 to 10000,1000 to 10000,+++ (≥350),< 100,–,–,CCOc1ccc(Cl)cc1CN[C@@H]1[C@@H](C(C)(C)C)[C@H](C(=O)O)N(C(=O)C2CCCCC2)[C@@H]1c1ccccc1 (racemic) [II-9]
> 10000,1000 to 10000,–,–,–,–,–,–,< 100,+ (<150),CC(C)(C)[C@@H]1[C@@H](NCc2cc(C(F)(F)F)ccc2OCCCS(C)(=O)=O)[C@@H](c2ccccc2)N(C(=O)C2CCCCC2)[C@H]1C(=O)O (racemic) [III-84]
–,–,–,–,< 1000,< 1000,+++ (≥350),100 to 200,–,–,COc1cc(C(C)(C)C)ccc1CN[C@H]1[C@H](C(C)(C)C)[C@@H](C(=O)O)N(C(=O)C2CCCCC2)[C@H]1c1ccccc1OC(F)F [II-124]
< 1000,< 1000,+++ (≥350),–,–,–,–,–,> 200,–,COc1ccc(C(C)(C)C)cc1CN[C@H]1[C@H](C(C)(C)C)[C@@H](C(=O)O)N(C(=O)C2CCCC(C)C2)[C@H]1c1ccccc1 (stereo partly shown) [III-175]
1000 to 10000,< 1000,–,–,–,–,–,–,> 200,+++ (≥350),COc1ccc(-n2ncc(C(=O)N3[C@H](C(=O)O)[C@@H](C(C)(C)C)[C@H](NCc4cc(C(C)(C)C)ccc4OC)[C@@H]3c3ccccc3)c2C)cc1 [II-357]
1000 to 10000,< 1000,+++ (≥350),100 to 200,–,–,–,–,–,–,COc1ccc(C(C)(C)C)cc1CN[C@H]1[C@H](C(C)(C)C)[C@@H](C(=O)O)N(C(=O)C2CCCCC2)[C@H]1c1ccccc1OC(F)F [Example I-229]
1000 to 10000,1000 to 10000,–,–,–,–,–,–,100 to 200,+++ (≥350),COc1ncc(C(F)(F)F)cc1CN[C@H]1[C@H](C23CC(C2)C3)[C@@H](C(=O)O)N(C(=O)OC(C)C)[C@H]1c1ccccc1F [II-544]

SMILES,EC50 [1] [nM],EC50 [2] [nM],Maximum % activity (with co-corrector) (with co-corrector (2 μM)),Emax (without co-corrector) [%],EC50 [3] [nM],EC50 [4] [nM],Maximum % activity (with co-corrector) [5],"Emax (CSE-HRP, without co-corrector) [%]",Emax [6] [%],Maximum % activity (with co-corrector) [7]
COc1ccc([Si](C)(C)C)cc1CN[C@H]1[C@H](C(C)(C)C)[C@@H](C(=O)O)N(C(=O)C2CCCCC2)[C@H]1c1ccccc1 [Example I-171],< 1000,< 1000,–,–,–,–,–,–,–,–
